# Results taken from the NIST ThermoML archive (doi:10.1021/acs.jced.8b00536).
# ± gives the expanded uncertainty stated by the source.
# Tests used:
# [1] = Molar enthalpy of transition or fusion; settings: Crystal; DSC
# [2] = Crystal; DSC
SMILES,Molar enthalpy of transition or fusion [1] [kcal/mol],Triple point temperature [2] [K]
"c1ccc2cc3cc4ccccc4cc3cc2c1 [2,3-benzanthracene]",8.94 ± 0.908,623.75 ± 1.2
"c1ccc(N(c2ccc(-c3ccc(N(c4ccccc4)c4cccc5ccccc45)cc3)cc2)c2cccc3ccccc23)cc1 [N,N'-di(1-naphthyl)-N,N'-diphenyl benzidine]",14.1 ± 1.43,551.75 ± 1.2
